{"source": "patent US20160311812A1", "about": "“ADENOSINE A1 AGONISTS AS MEDICAMENTS FOR KIDNEY DISORDERS” (BAYER PHARMA AKTIENGESELLSCHAFT, priority 2013, published 2016)", "key": {"[1]": {"tested_on": "5/6 nephrectomy rat model", "assay": "Left-ventricular diastolic dysfunction under isoprenaline infusion in 5/6 nephrectomized rats", "type": "in vivo", "conditions": "4 weeks", "excerpt": "(§1) B-3. Effects of Partial A1 Agonists on Renal and Cardiac Function in 5/6 Nephrectomized Rats (Example 1 for Chronic Kidney Disorder)\n(§2) 5/6 nephrectomy in the rat, in which one kidney and the renal cortex of the second kidney are surgically removed (=5/6 of functional kidney tissue) is an established animal model for interstitial renal fibrosis and chronic renal insufficiency [C. Fleck et al., “Suitability of 5/6 nephrectomy (5/6NX) for the induction of interstitial renal fibrosis in rats Influence of sex, strain, and surgical procedure”, Exp. Tox. Pathology 2006, 57, 195-205]. The model is characterized by progressive proteinuria, disturbed tubular electrolyte transport, a reduced glomerular filtration rate, an increase in urinary output, interstitial fibrosis with reactively occurring lymphocyte infiltrates, glomerulosclerosis and tubular atrophy. The level of proteinuria is a specific index of the renal function prognosis: the higher the proteinuria, the greater is the functional and structural kidney injury and therefore progression of chronic to terminal renal insufficiency (uraemia). During monitoring of therapy, e.g. with the ACE inhibitor enalapril, the course of proteinuria provides information on the functional and structural response to the therapy and thus on the renal function prognosis. As a result of the renal insufficiency and accumulation of umemic toxins, in the animals there is secondary development of a umemic cardiomyopathy, depending on the severity associated with hypertension, increased heart rate, reduced parasympathetic tone, myocardial, left-ventricular hypertrophy and fibrosis, diastolic dysfunction and an increased prevalence of arrhythmias [Svilerova et al. 2010 Physiol Res 59: S81-S88).\n(§3) Procedure: male Wistar:WU rats (210-250 g) from Charles River had the left kidney and the renal cortex of the right kidney removed (=SNX) in one session; sham-operated rats served as control group (=SOP). The following groups, each with 12 rats per group, were investigated:\n(§4) Group 2 SNX+placebo (60 g glycerol+100 g water+969 g PEG-400)\n(§5) Group 3 SNX+10 mg/kg body weight/day enalapril (reference therapy, in the drinking water)\n(§6) Group 4 SNX+0.1 mg/kg body weight/day partial A1 agonist EXAMPLE 1, p.o. in placebo\n(§7) Group 5 SNX+1.0 mg/kg body weight/day partial A1 agonist EXAMPLE 1, p.o. in placebo\n(§8) Group 6 SNX+0.3 mg/kg body weight/day partial A1 agonist EXAMPLE 4, p.o. in placebo\n(§9) Group 7 SNX+3.0 mg/kg body weight/day partial A1 agonist EXAMPLE 4, p.o. in placebo\n(§10) Three weeks after 5/6 nephrectomy, the rats developed manifest proteinuria, from this time point the rats were treated for a further four weeks corresponding to the groups stated above. At the end of the protocol, the following samples were obtained/measurements were carried out: eight-hour urine collection with determination of the concentration of hFABP in the urine by ELISA (Rat/Mouse h-FABP ELISA, Hycultbiotech), as marker for end organ damage, invasive measurement of the isoprenaline-induced increase (cumulatively 12.5 ng-250 ng/kg isoprenaline, i.v.) in systolic and diastolic left ventricular function, and TaqMan analyses of renal injury markers in the renal cortex."}, "[2]": {"tested_on": "unilaterally nephrectomized SHR", "assay": "Functional and structural renal dysfunction in unilaterally nephrectomized spontaneously hypertensive rats", "type": "in vivo, rat", "conditions": "Group 4: SNX + 1.0 mg/kg body weight/day p.o., 4 weeks", "excerpt": "B-4. Effects of Partial A1 Agonists on Renal and Cardiac Function in Unilaterally Nephrectomized and Spontaneously Hypertensive Rats (Example 2 for Chronic Kidney Disorders)\nUnilaterally nephrectomized, spontaneously hypertensive rats (SHR) are an established animal model for investigating the development and progression of hypertensive damage of the glomeruli in the remaining kidney [H. Kinuno et al., “Effects of uninephrectomy on renal structural properties in spontaneously hypertensive rats”, Clin and Exp Pharmacol and Physiol 2005, 32, 173-178]. […] Furthermore, renal excretion of substances usually eliminated in the urine, such as creatinine and urea, is reduced and the electrolyte metabolism is disturbed, the latter being associated with volume retention.\nProcedure: male SHR rats (180-220 g) from Taconic had the left kidney removed in one session (=UNX). Normotensive Wistar Kyoto rats (WKY) from Taconic served as control. The following groups, each with 12 rats per group, were investigated:\nGroup 2 UNX+placebo (60 g glycerol+100 g water+969 g PEG-400)\nGroup 3 UNX+10 mg/kg body weight/day enalapril (reference therapy, in the drinking water)\nGroup 4 SNX+1.0 mg/kg body weight/day partial A1 EXAMPLE 1, p.o. in placebo\nGroup 5 SNX+3.0 mg/kg body weight/day partial A1 EXAMPLE 4, p.o. in placebo\nThree weeks after unilateral nephrectomy, the SHRs developed manifest hypertensive damage of the glomeruli in the remaining kidney, from this time point on the rats were treated for a further four weeks corresponding to the groups given above. At the end of the protocol, the following samples were obtained/measurements were carried out: eight-hour urine collection, invasive measurement of systolic and diastolic left ventricular function, and TaqMan analyses of renal injury markers in the renal cortex."}, "[3]": {"tested_on": "5/6 nephrectomy rat model", "assay": "Functional and structural renal dysfunction in 5/6 nephrectomized rats", "type": "in vivo", "conditions": "4 weeks; for End organ injury marker concentration in the urine: hFABP / End organ injury marker concentration in the urine: hFABP per creatinine: ELISA; for Kidney injury marker-1 [gene expression] / Lipocalin-2 [gene expression] / Osteopontin [gene expression]: renal cortex", "excerpt": "as §1, §2, §3, §4, §5, §6, §7, §8, §9, §10"}, "[4]": {"conditions": "Group 4: SNX + 0.1 mg/kg body weight/day p.o."}, "[5]": {"conditions": "Group 5: SNX + 1.0 mg/kg body weight/day p.o."}}, "data": [{"smiles": "N#Cc1c(N)nc(SCc2csc(-c3ccc(Cl)cc3)n2)c(C#N)c1-c1ccc(OCCO)cc1", "note": "[EXAMPLE 1, 2-Amino-6-({[2-(4-chlorophenyl)-1,3-thiazol-4-yl]methyl}sulphanyl)-4-[4-(2-hydroxyethoxy)phenyl]pyridine-3,5-dicarbonitrile]", "values": [{"measurement": "left-ventricular pressure decrease as a function of time", "setting": "[1]; isoprenaline 0 ng/kg body weight, Group 4: SNX + 0.1 mg/kg body weight/day p.o.", "result": "6769 ± 206", "unit": "mmHg/s"}, {"measurement": "left-ventricular pressure decrease as a function of time", "setting": "[1]; isoprenaline 0 ng/kg body weight, Group 5: SNX + 1.0 mg/kg body weight/day p.o.", "result": "6516 ± 334", "unit": "mmHg/s"}, {"measurement": "left-ventricular pressure decrease as a function of time", "setting": "[1]; isoprenaline 12.5 ng/kg body weight, Group 4: SNX + 0.1 mg/kg body weight/day p.o.", "result": "7990 ± 208", "unit": "mmHg/s"}, {"measurement": "left-ventricular pressure decrease as a function of time", "setting": "[1]; isoprenaline 12.5 ng/kg body weight, Group 5: SNX + 1.0 mg/kg body weight/day p.o.", "result": "7126 ± 283", "unit": "mmHg/s"}, {"measurement": "left-ventricular pressure decrease as a function of time", "setting": "[1]; isoprenaline 25 ng/kg body weight, Group 4: SNX + 0.1 mg/kg body weight/day p.o.", "result": "8283 ± 222", "unit": "mmHg/s"}, {"measurement": "left-ventricular pressure decrease as a function of time", "setting": "[1]; isoprenaline 25 ng/kg body weight, Group 5: SNX + 1.0 mg/kg body weight/day p.o.", "result": "7309 ± 285", "unit": "mmHg/s"}, {"measurement": "left-ventricular pressure decrease as a function of time", "setting": "[1]; isoprenaline 50 ng/kg body weight, Group 4: SNX + 0.1 mg/kg body weight/day p.o.", "result": "8913 ± 282", "unit": "mmHg/s"}, {"measurement": "left-ventricular pressure decrease as a function of time", "setting": "[1]; isoprenaline 50 ng/kg body weight, Group 5: SNX + 1.0 mg/kg body weight/day p.o.", "result": "7990 ± 213", "unit": "mmHg/s"}, {"measurement": "left-ventricular pressure decrease as a function of time", "setting": "[1]; isoprenaline 100 ng/kg body weight, Group 4: SNX + 0.1 mg/kg body weight/day p.o.", "result": "9701 ± 300", "unit": "mmHg/s"}, {"measurement": "left-ventricular pressure decrease as a function of time", "setting": "[1]; isoprenaline 100 ng/kg body weight, Group 5: SNX + 1.0 mg/kg body weight/day p.o.", "result": "8722 ± 183", "unit": "mmHg/s"}, {"measurement": "left-ventricular pressure decrease as a function of time", "setting": "[1]; isoprenaline 250 ng/kg body weight, Group 4: SNX + 0.1 mg/kg body weight/day p.o.", "result": "9721 ± 307", "unit": "mmHg/s"}, {"measurement": "left-ventricular pressure decrease as a function of time", "setting": "[1]; isoprenaline 250 ng/kg body weight, Group 5: SNX + 1.0 mg/kg body weight/day p.o.", "result": "9028 ± 226", "unit": "mmHg/s"}, {"measurement": "P-creatinine", "setting": "[2]", "result": "62 ± 1.1", "unit": "mmol/L"}, {"measurement": "P-urea", "setting": "[2]", "result": "9.3 ± 0.4", "unit": "mmol/L"}, {"measurement": "U-creatinine", "setting": "[2]", "result": "2.1 ± 0.4", "unit": "μmol/ml urine/kg BW/h"}, {"measurement": "U-protein", "setting": "[2]", "result": "0.53 ± 0.10", "unit": "μmol/ml urine/kg BW/h"}, {"measurement": "U-sodium", "setting": "[2]", "result": "37 ± 9", "unit": "μmol/ml urine/kg BW/h"}, {"measurement": "U-urea", "setting": "[2]", "result": "186 ± 31", "unit": "μmol/ml urine/kg BW/h"}, {"measurement": "Urine volume", "setting": "[2]", "result": "2.1 ± 0.2", "unit": "ml/kg BW/h"}, {"measurement": "CYR61 [gene expression]", "setting": "[2]; renal cortex", "result": "395 ± 47", "unit": "rel. expression"}, {"measurement": "Lipocalin-2 [gene expression]", "setting": "[2]; renal cortex", "result": "160 ± 24", "unit": "rel. expression"}, {"measurement": "P-creatinine", "setting": "[3]; [4]", "result": "66 ± 1", "unit": "µmol/L"}, {"measurement": "P-urea", "setting": "[3]; [4]", "result": "11 ± 0.5", "unit": "mmol/L"}, {"measurement": "U-creatinine", "setting": "[3]; [4]", "result": "2.4 ± 0.3", "unit": "μmol/ml urine/kg BW/h"}, {"measurement": "U-protein", "setting": "[3]; [4]", "result": "1.07 ± 0.28", "unit": "μmol/ml urine/kg BW/h"}, {"measurement": "U-sodium", "setting": "[3]; [4]", "result": "18 ± 3", "unit": "μmol/ml urine/kg BW/h"}, {"measurement": "U-urea", "setting": "[3]; [4]", "result": "260 ± 31", "unit": "μmol/ml urine/kg BW/h"}, {"measurement": "Urine volume", "setting": "[3]; [4]", "result": "2.2 ± 0.1", "unit": "ml/kg BW/h"}, {"measurement": "End organ injury marker concentration in the urine: hFABP", "setting": "[3]; [4]", "result": "1088 ± 159", "unit": "pg hFABP/ml urine/h"}, {"measurement": "End organ injury marker concentration in the urine: hFABP per creatinine", "setting": "[3]; [4]", "result": "194 ± 36", "unit": "pg hFABP/μmol creatinine"}, {"measurement": "Kidney injury marker-1 [gene expression]", "setting": "[3]; [4]", "result": "60 ± 17", "unit": "rel. expression"}, {"measurement": "Lipocalin-2 [gene expression]", "setting": "[3]; [4]", "result": "307 ± 51", "unit": "rel. expression"}, {"measurement": "Osteopontin [gene expression]", "setting": "[3]; [4]", "result": "6008 ± 1209", "unit": "rel. expression"}, {"measurement": "P-creatinine", "setting": "[3]; [5]", "result": "63 ± 1", "unit": "µmol/L"}, {"measurement": "P-urea", "setting": "[3]; [5]", "result": "11 ± 0.3", "unit": "mmol/L"}, {"measurement": "U-creatinine", "setting": "[3]; [5]", "result": "2.3 ± 0.3", "unit": "μmol/ml urine/kg BW/h"}, {"measurement": "U-protein", "setting": "[3]; [5]", "result": "0.75 ± 0.14", "unit": "μmol/ml urine/kg BW/h"}, {"measurement": "U-sodium", "setting": "[3]; [5]", "result": "31 ± 3", "unit": "μmol/ml urine/kg BW/h"}, {"measurement": "U-urea", "setting": "[3]; [5]", "result": "264 ± 35", "unit": "μmol/ml urine/kg BW/h"}, {"measurement": "Urine volume", "setting": "[3]; [5]", "result": "2.0 ± 0.2", "unit": "ml/kg BW/h"}, {"measurement": "End organ injury marker concentration in the urine: hFABP", "setting": "[3]; [5]", "result": "1136 ± 229", "unit": "pg hFABP/ml urine/h"}, {"measurement": "End organ injury marker concentration in the urine: hFABP per creatinine", "setting": "[3]; [5]", "result": "175 ± 39", "unit": "pg hFABP/μmol creatinine"}, {"measurement": "Kidney injury marker-1 [gene expression]", "setting": "[3]; [5]", "result": "62 ± 13", "unit": "rel. expression"}, {"measurement": "Lipocalin-2 [gene expression]", "setting": "[3]; [5]", "result": "313 ± 65", "unit": "rel. expression"}, {"measurement": "Osteopontin [gene expression]", "setting": "[3]; [5]", "result": "5476 ± 1131", "unit": "rel. expression"}]}]}
